According to PMC8597745, “The Antimicrobial Peptide MK58911-NH2 Acts on Planktonic, Biofilm, and Intramacrophage Cells of Cryptococcus neoformans” (Antimicrobial Agents and Chemotherapy, 2021):
Converted amounts (≈) assume the structure as drawn. No end group written: not given here.

Legend:
C. gattii = test: microbe, parasite or virus in culture; details: 48 h; for MIC: Cryptococcus gattii, read-out: C. gattii MIC; for C. gattii MIC: 37°C, RPMI 1640, visual reading
Protocol: (§1) C. neoformans ATCC 90112 and C. gattii ATCC 56990 were purchased from the collection of the Laboratory of Clinical Mycology, Faculty of Pharmaceutical Sciences of UNESP, Araraquara, Brazil. Cryptococcus species were grown at 30°C for 48 to 72 h in Sabouraud dextrose agar.
(§2) Anti-Cryptococcus activity was determined by the broth microdilution method according to document M27-A3 from the Clinical and Laboratory Standards Institute ([47]). Briefly, 100 μl of a fungal suspension at […] in RPMI 1640 medium was added to each well of the 96-well plate. Subsequently, 100 μl of MK58911-NH2, MK58911(1–7)-OH, MK58911(8–14)-NH2, MK58911(4–11)-OH, and MH58911 (0.48 to 250 μg/ml); amphotericin B (0.016 to 8 μg/ml); and fluconazole (0.063 to 32 μg/ml), all diluted in RPMI 1640 medium, was added to the plate. The fungal suspension and RPMI 1640 medium were used as the positive and negative controls, respectively. The plate was incubated at 37°C at 150 rpm for 48 h. Next, fungal growth was visually observed, and the MIC was determined. Three independent experiments were performed.

C. neoformans [1] = test: microbe, parasite or virus in culture; details: 48 h; for MIC: Cryptococcus neoformans, read-out: C. neoformans MIC; for C. neoformans MIC: 37°C, RPMI 1640, visual reading
Protocol: as §1, §2

[2] = test system: intramacrophage C. neoformans; test: Intramacrophage activity (J774 macrophages infected with C. neoformans, CFU); format: cell-based, Cryptococcus neoformans; details: treatment at the MIC, 24 h; control 4.5 × 10^3 CFU/well
Protocol: The medium was used as a positive control. […] Three independent experiments were performed.

[3] = test system: C. neoformans biofilm formation; test: Antibiofilm activity, biofilm formation at 0 h (XTT reduction); format: cell-based, Cryptococcus neoformans
Protocol: (§4) Briefly, C. neoformans was grown in Sabouraud dextrose broth at 30°C at 150 rpm for 24 h. To evaluate the effect of peptides on biofilm formation, a fungal suspension of 1 × 10^7 cells/ml in minimal medium (20 mg/ml thiamine, 30 mM glucose, 26 mM glycine, 20 mM MgSO4·7H2O, 58.8 mM KH2PO4) was prepared, and 100 μl of the suspension was added to individual wells of 96-well polystyrene plates (TPP, Switzerland). […] The plate was incubated at 37°C for 48 h. To evaluate the effect of the peptides on the mature biofilm, 100 μl of the fungal suspension was added to individual wells of a 96-well plate, and the plate was incubated at 37°C for 48 h. After that period, the supernatant was removed, and the peptides and drugs were added. The plate was again incubated at 37°C for 48 h. The metabolic activity of the biofilms was quantified by the 2,3-bis(2-methoxy-4-nitro-5-sulfophenyl)-5-[(phenylamino)carbonyl]-2H-tetrazolium hydroxide (XTT) reduction assay. For this, a solution with 50 μl of XTT (1 mg/ml in PBS) and 4 μl of menadione (1 mM in ethanol; Sigma-Aldrich, São Paulo, SP, Brazil) was added to each well of the 96-well plate. After 3 h of incubation at 37°C, the fluorescence intensity was measured using a microplate reader (BioTek) at 490 nm. Subsequently, the percentage of metabolic activity of the biofilm treated with peptides/drugs was compared to that of the untreated control. […]

[4] = test system: C. neoformans mature biofilm; test: Antibiofilm activity, mature biofilm at 48 h (XTT reduction); format: cell-based, Cryptococcus neoformans
Protocol: as §4

C. neoformans [5] = test: Zebrafish embryo immersion infection model, fungal burden (CFU); format: in vivo, zebrafish embryos; details: immersion infection 1 × 10^6 cells/ml, treatment at the MIC for 24 h
Protocol: (§3) A zebrafish embryo infection model by immersion was used, as previously described for C. albicans, with some modifications ([22]). The housing and breeding of the fish used in this study received appropriate institutional approvals (permit number 01.0082.2014). Briefly, 15 zebrafish embryos at 24 h postfertilization (hpf) and cultured in embryo medium at 28°C were used. Embryos were coincubated in wells with C. neoformans at 1 × 10^6 cells/ml by immersion. The plate was incubated at 28°C at 80 rpm for 24 h. Subsequently, the embryos were washed twice with embryo medium and transferred to a 96-well plate (1 embryo/well). Next, 100 μl of MK58911-NH2, amphotericin B, and fluconazole, all diluted in embryo medium and at the MIC, was added to the wells. The plate was incubated at 28°C at 80 rpm for 24 h. After that, the embryos were lysed individually in 2% Triton X-100–PBS using a 26-gauge needle. A […] dilution was performed in PBS, and 10 μl was plated onto Sabouraud dextrose agar containing 50 mg/liter chloramphenicol. […] The groups were tested in triplicate, and two independent experiments were performed. Images of some embryos 4 h after infection with C. neoformans, labeled with calcofluor white, were acquired with an In Cell Analyzer 2000 microscope (GE).

in vitro [6] = details: human, MRC5 pulmonary fibroblasts
Protocol: (§5) The impact of peptides on the viability of pulmonary fibroblasts (MRC5) was also evaluated. Cells were cultured in Dulbecco’s high-glucose modified Eagle medium (DMEM; Gibco, Thermo Fisher Scientific) supplemented with 10% fetal bovine serum (FBS) in 25-cm^2 flasks. For the assay, cells were seeded into 96-well plates at 5 × 10^4 cells/well. The cells were left to grow at 37°C in a 5% CO2 incubator for 24 h until they reached confluence. […] DMEM and dimethyl sulfoxide (DMSO) were used as the positive and negative controls, respectively. The plates were then incubated at 37°C in a 5% CO2 incubator for 24 h. Resazurin (0.01%; Sigma-Aldrich) was then used to assess the viability of the cells according to the manufacturer’s instructions. After 4 h of incubation at 37°C in a 5% CO2 incubator, the fluorescence intensity was measured using a microplate reader (BioTek) at 570 to 600 nm. The fluorescence values were normalized by the positive control and expressed as a percentage of metabolic activity. Values for the 50% inhibitory concentration (IC50) were calculated. Three independent experiments were performed.

in vitro [7] = details: mouse, J774 macrophages
Protocol: as §5
The impact of peptides on the viability of macrophages (J774) was also evaluated as described above for MRC5 cells.

zebrafish embryos = test: Survival of infected zebrafish embryos under treatment; format: in vivo; details: treatment at the MIC for 24 h
Protocol: as §3

C[C@@H]1[C@H](O)[C@@H](C)/C=C/C=C/C=C/C=C/C=C/C=C/C=C/[C@H](O[C@@H]2O[C@H](C)[C@@H](O)[C@H](N)[C@@H]2O)C[C@@H]2O[C@](O)(C[C@@H](O)C[C@@H](O)[C@H](O)CC[C@@H](O)C[C@@H](O)CC(=O)O[C@H]1C)C[C@H](O)[C@H]2C(=O)O [Amphotericin B]
MIC (C. gattii): 0.125 µg/mL (≈ 0.135 µM) | MIC (C. neoformans [1]): 0.125 µg/mL (≈ 0.135 µM) | intramacrophagic fungal burden (average) [2]: 1.1 × 10^3 CFU/well | concentration at which formation of C. neoformans biofilms can be prevented [3]: > 0.5 µg/mL | concentration at which mature biofilms can be inhibited ([4]; mature biofilms): > 2 µg/mL | fungal burden (CFU) of embryos' chorion vs untreated control (C. neoformans [5]): significant reduction in CFU

OC(Cn1cncn1)(Cn1cncn1)c1ccc(F)cc1F [Fluconazole]
MIC (C. gattii): 8 µg/mL (≈ 26.1 µM) | MIC (C. neoformans [1]): 1 µg/mL (≈ 3.27 µM) | intramacrophagic fungal burden (average) [2]: 1.8 × 10^3 CFU/well | susceptibility of C. neoformans biofilms ([4]; biofilms in vitro, corroborates ref 13): resistant | fungal burden (CFU) of embryos' chorion vs untreated control (C. neoformans [5]): did not reduce the fungal burden

INWLHIAHHVHGML-NH2 [MH58911-NH2, INWLHIAHHVHGML-NH2]
C. gattii MIC (C. gattii): >250 µg/mL | C. neoformans MIC (C. neoformans [1]): >250 µg/mL | IC50 at 24 h (in vitro [6]): > 500 µg/mL | IC50 at 24 h (in vitro [7]): > 250 µg/mL

INWLKIA-OH [MK58911(1–7)-OH, INWLKIA-OH]
IC50 at 24 h (in vitro [6]): > 500 µg/mL

INWLKIAKKVKGML-NH2 [MK58911-NH2, INWLKIAKKVKGML-NH2]
C. gattii MIC (C. gattii): 15.63 µg/mL | C. neoformans MIC (C. neoformans [1]): 31.25 µg/mL | embryo survival under treatment (zebrafish embryos): All embryos survived | IC50 at 24 h (in vitro [6]): > 500 µg/mL | IC50 at 24 h (in vitro [7]): 62.5 µg/mL

KKVKGML-NH2 [MK58911(8–14)-NH2, KKVKGML-NH2]
C. gattii MIC (C. gattii): >250 µg/mL | C. neoformans MIC (C. neoformans [1]): >250 µg/mL | IC50 at 24 h (in vitro [6]): > 500 µg/mL

LKIAKKVK-OH [MK58911(4–11)-OH, LKIAKKVK-OH]
IC50 at 24 h (in vitro [6]): > 500 µg/mL
